# What was measured:
# SK-OV-3 = test: Cytotoxicity against human SKOV3 cells assessed as inhibition of cell growth incubated for 48 hrs by SRB assay; format: functional, cell-based; conditions: SK-OV-3, 48 h
# Staphylococcus aureus = test: Antimicrobial activity against Staphylococcus aureus BAA-2313 incubated for 48 hrs by broth dilution method; format: functional, organism-based; conditions: BAA-2313, 48 h
# A549 = test: Cytotoxicity against human A549 cells assessed as inhibition of cell growth incubated for 48 hrs by SRB assay; format: functional, cell-based; conditions: A549, 48 h
# Saccharomyces cerevisiae = test: Antimicrobial activity against Saccharomyces cerevisiae ATCC 9763 incubated for 48 hrs by broth dilution method; format: functional, organism-based; conditions: ATCC 9763, 48 h
# Bacillus subtilis = test: Antimicrobial activity against Bacillus subtilis ATCC 6633 incubated for 48 hrs by broth dilution method; format: functional, organism-based; conditions: ATCC 6633, 48 h
# SK-MEL-2 = test: Cytotoxicity against human SK-MEL-2 cells assessed as inhibition of cell growth incubated for 48 hrs by SRB assay; format: functional, cell-based; conditions: SK-MEL-2, 48 h
# Candida albicans = test: Antimicrobial activity against Candida albicans ATCC 10231 incubated for 48 hrs by broth dilution method; format: functional, organism-based; conditions: ATCC 10231, 48 h
# HCT-15 = test: Cytotoxicity against human HCT15 cells assessed as inhibition of cell growth incubated for 48 hrs by SRB assay; format: functional, cell-based; conditions: HCT-15, 48 h
IC50 (Staphylococcus aureus) [µg/mL],MIC (Staphylococcus aureus) [µg/mL],IC50 (Saccharomyces cerevisiae) [µg/mL],IC50 (Bacillus subtilis) [µg/mL],MIC (Bacillus subtilis) [µg/mL],IC50 (Candida albicans) [µg/mL],SMILES,IC50 (SK-OV-3) [µM],IC50 (A549) [µM],IC50 (SK-MEL-2) [µM],IC50 (HCT-15) [µM],MFC (Saccharomyces cerevisiae) [µg/mL],MFC (Candida albicans) [µg/mL]
165,200,> 200,106,150,> 200,C[C@@H]1O[C@@H](O[C@@H]2[C@@H](O)[C@H](OCCc3ccc(O)c(O)c3)O[C@H](CO)[C@@H]2OC(=O)/C=C/c2ccc(O)c(O)c2)[C@H](O)[C@H](O)[C@H]1O,9.52,6.78,4.5,7.03,,
140,200,> 200,84.1,150,> 200,CC[C@@H](C)C(=O)c1c(O)cc(O)cc1CC(=O)O,> 30,> 30,> 30,> 30,,
,,0.5,,,2.1,C[C@@H]1[C@H](O)[C@@H](C)/C=C/C=C/C=C/C=C/C=C/C=C/C=C/[C@H](O[C@@H]2O[C@H](C)[C@@H](O)[C@H](N)[C@@H]2O)C[C@@H]2O[C@](O)(C[C@@H](O)C[C@@H](O)[C@H](O)CC[C@@H](O)C[C@@H](O)CC(=O)O[C@H]1C)C[C@H](O)[C@H]2C(=O)O [AMPHOTERICIN B],,,,,5,5
,,,,,,COc1cccc2c1C(=O)c1c(O)c3c(c(O)c1C2=O)C[C@@](O)(C(=O)CO)C[C@@H]3O[C@H]1C[C@H](N)[C@H](O)[C@H](C)O1 [DOXORUBICIN],,,,0.109,,
8.5,10,,4.5,5,,CN[C@@H]1[C@H](O[C@H]2[C@H](O[C@H]3[C@H](O)[C@@H](O)[C@H](N=C(N)N)[C@@H](O)[C@@H]3N=C(N)N)O[C@@H](C)[C@]2(O)C=O)O[C@@H](CO)[C@H](O)[C@H]1O.CN[C@@H]1[C@H](O[C@H]2[C@H](O[C@H]3[C@H](O)[C@@H](O)[C@H](N=C(N)N)[C@@H](O)[C@@H]3N=C(N)N)O[C@@H](C)[C@]2(O)C=O)O[C@@H](CO)[C@H](O)[C@H]1O.O=S(=O)(O)O.O=S(=O)(O)O.O=S(=O)(O)O [STREPTOMYCIN SULFATE],,,,,,
156,200,> 200,98.5,150,> 200,C[C@@H]1O[C@@H](O[C@@H]2[C@@H](O)[C@H](OCCc3ccc(O)c(O)c3)O[C@H](CO)[C@H]2OC(=O)/C=C/c2ccc(O)c(O)c2)[C@H](O)[C@H](O)[C@H]1O [ACETOSIDE],7.61,5.81,8.52,2.73,,
